pKi: −log10 of the molar value.
Legend:
CYP3A4 = CYP3A4 (Homo sapiens, UniProt P08684); assay: Inhibition of cytochrome P450 3A4 was determined at 2 uM
Cytochrome P450 2D6 = Cytochrome P450 2D6 (Homo sapiens, UniProt P10635); assay: Predictive competitive inhibition of cytochrome P450 2D6 was determined in silico
[1] = target: T1, Sodium channel alpha subunits; brain (Types I, II, III) (Rattus norvegicus, UniProt P04775+P04774+P08104); assay: In vitro inhibition of [3H]batrachotoxin binding to neurotoxin site 2 of sodium (Na+) channel in rat cerebral cortex membrane; format: cell membranes
CYP2D6 [2] = target: T2, CYP2D6 (Homo sapiens, UniProt P10635); assay: (§1) Inhibition of cytochrome P450 2D6 at 2 uM
CYP2D6 [3] = target: T2, CYP2D6; assay: as §1; format: ADME
Rattus norvegicus [4] = species: Rattus norvegicus; assay: Inhibition of tetrodotoxin (TTX) sensitive current by the compound was determined at 10 uM using whole-cell patch clamp tests in cultured rat dorsal root ganglion (DRG); format: functional
Rattus norvegicus [5] = species: Rattus norvegicus; assay: Inhibition of tetrodotoxin (TTX) resistant current by the compound was determined at 10 uM using whole-cell patch clamp tests in cultured rat dorsal root ganglion (DRG); format: functional
[6] = target: T1, Sodium channel alpha subunits; brain (Types I, II, III); assay: Inhibitory concentration against [3H]batrachotoxin binding to neurotoxin site 2 of sodium (Na+) channel in vitro in rat cerebral cortex membrane at 1 uM; format: cell membranes

T2 sequence (P10635 whole entry): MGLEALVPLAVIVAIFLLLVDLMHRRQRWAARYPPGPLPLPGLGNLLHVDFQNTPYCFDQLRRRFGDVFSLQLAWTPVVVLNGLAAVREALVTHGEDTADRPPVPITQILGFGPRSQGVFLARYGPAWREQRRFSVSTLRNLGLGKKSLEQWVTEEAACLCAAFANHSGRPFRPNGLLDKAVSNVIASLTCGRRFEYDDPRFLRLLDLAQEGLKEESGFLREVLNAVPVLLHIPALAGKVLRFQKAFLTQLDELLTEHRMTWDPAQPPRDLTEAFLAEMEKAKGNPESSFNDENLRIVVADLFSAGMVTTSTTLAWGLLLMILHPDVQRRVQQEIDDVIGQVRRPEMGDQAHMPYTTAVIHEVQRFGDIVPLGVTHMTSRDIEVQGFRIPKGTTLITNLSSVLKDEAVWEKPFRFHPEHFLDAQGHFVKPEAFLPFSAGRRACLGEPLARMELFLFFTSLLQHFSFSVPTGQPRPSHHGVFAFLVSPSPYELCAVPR
Chain of Cytochrome P450 2D6 (P10635 whole entry): as above
Chain of CYP3A4 (P08684 whole entry): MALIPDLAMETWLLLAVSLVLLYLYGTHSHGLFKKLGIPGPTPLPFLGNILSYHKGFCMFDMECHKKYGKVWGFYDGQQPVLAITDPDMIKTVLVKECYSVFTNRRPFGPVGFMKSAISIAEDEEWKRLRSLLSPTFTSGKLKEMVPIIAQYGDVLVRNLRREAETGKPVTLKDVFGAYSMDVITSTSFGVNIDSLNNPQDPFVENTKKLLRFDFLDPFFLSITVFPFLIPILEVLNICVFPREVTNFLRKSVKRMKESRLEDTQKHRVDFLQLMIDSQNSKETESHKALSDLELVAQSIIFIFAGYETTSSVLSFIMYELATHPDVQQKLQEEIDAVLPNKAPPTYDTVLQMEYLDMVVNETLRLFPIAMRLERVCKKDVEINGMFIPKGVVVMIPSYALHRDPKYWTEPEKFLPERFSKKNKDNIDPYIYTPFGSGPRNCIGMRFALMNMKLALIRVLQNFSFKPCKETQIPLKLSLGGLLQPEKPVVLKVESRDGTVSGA

Structure (SMILES)	inhibition at 2 µM (CYP3A4)	pKi (Cytochrome P450 2D6)	IC50 [1]	inhibition at 2 µM (CYP2D6 [2])	inhibition at 2 µM (CYP2D6 [3])	Inhibition (Rattus norvegicus [4])	Inhibition (Rattus norvegicus [5])	IC50 [6]
COc1ccc(CNC(=O)C(c2ccc(C(F)(F)F)cc2)N2CCN(CC(O)COc3c(C)cccc3C)CC2)cc1 (stereo unspecified)	62%	5.70	0.355 µM	8%	–	–	–	–
COc1ccc(OCC(O)CN2CCN(C(C(=O)NCc3ccccc3)c3ccc(C)cc3)CC2)cc1 (stereo unspecified)	65%	5.40	0.579 µM	10%	–	–	–	–
Cc1cccc(C)c1OCC(O)CN1CCN(C(C(=O)NCc2ccccc2)c2ccc(F)cc2)CC1 (stereo unspecified)	38%	5.70	0.149 µM	20%	–	–	–	–
C=CCOCC(O)CN1CCN(C(c2ccccc2)c2ccc(Cl)cc2)CC1 (stereo unspecified)	–	7.00	0.401 µM	–	87%	20%	–	–
COc1ccc(OCC(O)CN2CCN(C(C(=O)NCc3ccccc3)c3ccc(C(F)(F)F)cc3)CC2)cc1 (stereo unspecified)	68%	5.70	0.429 µM	13%	–	–	–	–
OC(COc1ccccc1)CN1CCN(C(c2ccccc2)c2ccc(C(F)(F)F)cc2)CC1 (stereo unspecified)	–	6.22	0.893 µM	87%	–	61%	57%	–
O=C(NCC(c1ccccc1)N1CCN(CC(O)COc2ccccc2)CC1)c1ccc(F)cc1 (stereo unspecified)	61%	5.15	0.363 µM	9%	–	–	–	–
Cc1ccc(C(C(=O)NCc2ccccc2)N2CCN(CC(O)COc3c(C)cccc3C)CC2)cc1 (stereo unspecified)	44%	5.70	0.325 µM	26%	–	–	–	–
COc1ccc(CNC(=O)C(c2ccc(C(F)(F)F)cc2)N2CCN(CC(O)COc3ccc(OC)cc3)CC2)cc1 (stereo unspecified)	88%	5.40	0.359 µM	0%	–	–	–	–
COc1ccc(OCC(O)CN2CCN(C(C(=O)NCc3ccccc3)c3ccc(F)cc3)CC2)cc1 (stereo unspecified)	49%	5.30	0.254 µM	0%	–	–	–	–
COc1ccc(C(=O)NCC(c2ccccc2)N2CCN(CC(O)COc3ccc(Cl)cc3)CC2)cc1 (stereo unspecified)	96%	5.40	0.538 µM	47%	–	–	–	–
COc1ccc(CNC(=O)C(c2ccc(OC)cc2)N2CCN(CC(O)COc3c(C)cccc3C)CC2)cc1 (stereo unspecified)	74%	5.30	0.571 µM	9%	–	–	–	–
COc1ccc(OCC(O)CN2CCN(C(CNC(=O)c3ccc(F)cc3)c3ccccc3)CC2)cc1 (stereo unspecified)	22%	5.52	0.531 µM	33%	–	–	–	–
COc1ccc(CNC(=O)C(c2ccc(F)cc2)N2CCN(CC(O)COc3ccc(OC)cc3)CC2)cc1 (stereo unspecified)	81%	5.15	0.214 µM	10%	–	–	–	–
COc1ccc(OC)c(S(=O)(=O)NCC(c2ccccc2)N2CCN(CC(O)COc3ccc(Br)cc3)CC2)c1 (stereo unspecified)	100%	4.52	0.522 µM	25%	–	–	–	–
COc1ccc(OCC(O)CN2CCN(C(CNC(=O)c3ccccc3OC)c3ccccc3)CC2)cc1 (stereo unspecified)	93%	5.10	0.721 µM	9%	–	–	–	–
COc1ccc(CNC(=O)C(c2ccc(C)cc2)N2CCN(CC(O)COc3c(C)cccc3C)CC2)cc1 (stereo unspecified)	74%	5.52	0.351 µM	14%	–	–	–	–
O=S(=O)(NCC(c1ccc(C(F)(F)F)cc1)N1CCN(CC(O)COc2ccc(F)cc2)CC1)c1ccccc1Cl (stereo unspecified)	92%	5.00	–	56%	–	–	–	0.076 µM
COc1ccc(OCC(O)CN2CCN(C(CNC(=O)c3ccc(OC)cc3)c3ccccc3)CC2)cc1 (stereo unspecified)	95%	5.10	0.871 µM	12%	–	–	–	–
Cc1cccc(S(=O)(=O)NCC(c2ccc(C(F)(F)F)cc2)N2CCN(CC(O)COc3ccc(Br)cc3)CC2)c1 (stereo unspecified)	76%	5.00	–	27%	–	–	–	0.095 µM

— ChEMBL document CHEMBL1147532, “The design, preparation and SAR of novel small molecule sodium (Na(+)) channel blockers” (Bioorg Med Chem Lett, 2004)
